The EC50 is the concentration at which the effect is half-maximal.

Read-outs that look alike come from different tables or passages of the source.

For experiment [1], the system named is HCV subgenomic stable replicons containing proteases from genotypes 1 to 6. Briefly: Stable HCV replicon assay, several genotypes. It counts as cell-based. The note with it: Hepatitis C virus, Huh-7, read-out: EC50, range over stable replicons. The text has this: (§1) Five of these nine cell lines have been described previously, including those transfected with genotypes 1a H77, 1b Con1, 3a, 4a, and 6a ([28]). […] The genotype 2b and 6e NS3 sequences were each synthetically constructed based on a consensus sequence derived from the alignment of 15 genotype 2b and 4 genotype 6e sequences, respectively. All replicon constructs were bicistronic subgenomic replicons similar to those described by Bartenschlager and coworkers, and the replicon cell lines were generated by introducing these constructs into cells of an Huh-7 human hepatoma-derived cell line ([50]). The inhibitory effect of the PIs on HCV replication in replicon cells was determined in Dulbecco's modified Eagle medium containing 5% fetal bovine serum with or without 40% human plasma (Bioreclamation, Westbury, NY). The EC50s were determined using nonlinear regression curve fitting as described previously ([33]).
For orientation: Replicon systems follow genome replication, usually without infectious particles.

The test system of experiment [2] is HCV replicons containing proteases from 40 samples, genotypes 1 to 5. Briefly: Transient replicon assay with patient proteases, all 40 samples. It counts as cell-based. The note with it: Hepatitis C virus, 40 clinical samples. The text has this:
[…]. Each of the NS3 gene sequences from genotypes 1, 2, and 4, with the exception of two genotype 2b sequences, was derived from serum or plasma from an HCV-infected patient by bulk PCR amplification, producing a population of sequences representing the viral quasispecies. Two genotype 2b sequences were synthesized based on the consensus sequences of the respective samples. One genotype 3a sequence was synthesized based on a consensus sequence from the sequences available in the Los Alamos HCV sequence database, and another genotype 3a sequence was a clonal sequence derived from a patient sample. The genotype 5a sequence (strain SA13) was synthesized based on the published sequence of the HCV isolate ([48]).
Transient replicons containing NS3 from clinical samples from HCV genotype 1a- and 1b-infected patients were described previously ([28]). For the transient replicons containing NS3/4A from samples from genotype 3a-infected patients, the first 251 amino acids of NS3 and the region encoding NS4A amino acids 21 to 32 (numbered relative to the NS4A coding region) from these HCV samples were cloned to replace the corresponding residues from the backbone of a genotype 1b Con1 shuttle vector. […]

The subject of the next experiment is HCV genotype 1. The note with it: 3-day monotherapy, daily doses of 100 to 700 mg, genotype 1 treatment-naive patients; cited from earlier work.
The subject of experiment [3] is HCV replicons with genotype 4a patient proteases. Briefly: Transient replicon assay with proteases from HCV-infected patients. Type of experiment: cell-based. The note with it: Hepatitis C virus. The text has this:
Each of the NS3 gene sequences from genotypes 1, 2, and 4, with the exception of two genotype 2b sequences, was derived from serum or plasma from an HCV-infected patient by bulk PCR amplification, producing a population of sequences representing the viral quasispecies. Two genotype 2b sequences were synthesized based on the consensus sequences of the respective samples. One genotype 3a sequence was synthesized based on a consensus sequence from the sequences available in the Los Alamos HCV sequence database, and another genotype 3a sequence was a clonal sequence derived from a patient sample. The genotype 5a sequence (strain SA13) was synthesized based on the published sequence of the HCV isolate ([48]).
Transient replicons containing NS3 from clinical samples from HCV genotype 1a- and 1b-infected patients were described previously ([28]).
For the analysis of NS3 sequences from patients, we defined a polymorphism to be an amino acid difference in the sequence of a baseline sample relative to the sequence of the appropriate HCV subtype reference sequence: genotype 1a H77 (GenBank accession number NC_004102), genotype 1b Con1 (GenBank accession number AJ238799), genotype 2a JFH-1 (GenBank accession number AB047639), genotype 2b HC-J8 (GenBank accession number D10988), genotype 3a S52 (GenBank accession number GU814263), genotype 4a ED43 (GenBank accession number GU814265), genotype 4d QC382 (GenBank accession number FJ462437), and genotype 5a SA13 (GenBank accession number AF064490). […] All DNA sequencing was performed by the Sanger sequencing method.

For experiment [4], the system named is HCV subgenomic stable replicon GT1a H77. It counts as cell-based, Hepatitis C virus. The note with it: 0% human plasma, read-out: Mean EC50 ± SD.
Description: as §1

Experiment [5] concerns HCV subgenomic stable replicon GT2a JFH-1. Type of experiment: cell-based, Hepatitis C virus. The note with it: GT2a JFH-1 stable replicon, 0% human plasma; read-out: Mean EC50 ± SD.
Description: as §1

Consider `CC(C)(C)[C@@H]1NC(=O)O[C@@H]2CCC[C@H]2OC/C=C/C(F)(F)c2nc3ccccc3nc2O[C@@H]2C[C@@H](C(=O)N[C@]3(C(=O)NS(=O)(=O)C4(C)CC4)C[C@H]3C(F)F)N(C2)C1=O` [Glecaprevir, (3aR,7S,10S,12R,21E,24aR)-7-tert-butyl-N-[(1R,2R)-2-(difluoromethyl)-1-{[(1-methylcyclopropyl)sulfonyl]carbamoyl}cyclopropyl]-20,20-difluoro-5,8-dioxo-2,3,3a,5,6,7,8,11,12,20,23,24a-dodecahydro-1H,10H-9,12-methanocyclopenta[18,19][1,10,17,3,6]trioxadiazacyclononadecino[11,12-b]quinoxaline-10-carboxamide], for which the EC50 in experiment [1] was 0.21 to 4.6 nM; in experiment [2] (read-out: EC50 range, overall), 0.05 to 3.8 nM; in experiment [2] (read-out: Overall median EC50), 0.3 nM; in experiment [3] (read-out: EC50 Median, subtype 4a, T54S, 1 sample), 0.44 nM; in experiment [3] (read-out: EC50 Median, subtype 4a, no polymorphism, 5 samples), 0.39 nM; in experiment [3] (read-out: EC50 Range, subtype 4a, no polymorphism, 5 samples), 0.31 to 0.55 nM. For the same molecule, in the experiment with HCV genotype 1, the “Mean maximal decrease in HCV plasma viral load from baseline” value was 3.8 to 4.3 log10 IU/ml.

On to `C=C[C@@H]1C[C@]1(NC(=O)[C@@H]1C[C@@H]2CN1C(=O)[C@H](C(C)(C)C)NC(=O)O[C@@H]1C[C@H]1CCCCCc1nc3ccc(OC)cc3nc1O2)C(=O)NS(=O)(=O)C1CC1` [Grazoprevir], for which the EC50 in experiment [4] came out at 0.37 ± 0.05 nM; in experiment [5] it was 8.6 ± 3 nM.

The record behind these values is article PMC5740381 (Antimicrobial Agents and Chemotherapy, 2017).
